# Measured values from US20240051985A1, “METTL3 MODULATORS” (ACCENT THERAPEUTICS, INC., priority 2020, published 2024).
# Assays:
# FLT3 = target: T1, FLT3 (Homo sapiens, UniProt P36888); assay: FLT3 LanthaScreen assay; assay type: biochemical; details: Table 4
# T1 sequence (P36888 27-993): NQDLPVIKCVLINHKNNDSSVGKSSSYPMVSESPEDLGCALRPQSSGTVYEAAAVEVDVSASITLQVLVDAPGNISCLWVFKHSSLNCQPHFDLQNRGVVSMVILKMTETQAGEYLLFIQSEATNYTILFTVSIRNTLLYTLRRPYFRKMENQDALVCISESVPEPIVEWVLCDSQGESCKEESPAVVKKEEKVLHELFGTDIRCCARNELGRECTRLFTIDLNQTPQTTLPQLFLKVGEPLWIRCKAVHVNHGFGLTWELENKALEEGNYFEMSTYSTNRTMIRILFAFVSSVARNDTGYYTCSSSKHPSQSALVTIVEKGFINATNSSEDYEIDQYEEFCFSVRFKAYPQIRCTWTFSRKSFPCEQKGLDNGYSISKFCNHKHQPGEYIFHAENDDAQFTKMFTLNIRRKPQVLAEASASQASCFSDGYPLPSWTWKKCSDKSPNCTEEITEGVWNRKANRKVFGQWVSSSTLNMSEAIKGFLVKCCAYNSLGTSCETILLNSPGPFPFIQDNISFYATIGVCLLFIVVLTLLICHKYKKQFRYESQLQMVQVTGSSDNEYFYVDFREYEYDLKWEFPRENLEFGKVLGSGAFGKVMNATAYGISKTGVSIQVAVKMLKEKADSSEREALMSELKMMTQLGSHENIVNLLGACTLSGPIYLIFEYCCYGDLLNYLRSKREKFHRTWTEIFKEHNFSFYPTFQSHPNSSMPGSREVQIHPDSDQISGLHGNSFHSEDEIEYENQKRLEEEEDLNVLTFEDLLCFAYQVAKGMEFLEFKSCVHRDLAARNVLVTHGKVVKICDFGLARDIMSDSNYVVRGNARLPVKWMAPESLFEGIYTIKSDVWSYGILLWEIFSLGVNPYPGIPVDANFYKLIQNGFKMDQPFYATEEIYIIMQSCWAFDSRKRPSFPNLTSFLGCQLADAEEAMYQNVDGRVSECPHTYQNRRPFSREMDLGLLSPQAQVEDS
# Experimental: (§1) FLT3/FLT3-ITD LanthaScreen Assays
# (§2) Assays were performed in a 10 μl-volume in 384-well polypropylene microplates (Perkin Elmer Proxiplate, cat. No. 6059480) at ambient temperature. Optimized 1× assay buffer was 50 mM Hepes pH 7.5, 2 mM DTT, 0.01% Tween, 0.01% BSA, 10 mM MgCl2. For compound screening FLT3 (final concentration, f.c.=[…]) or FLT3-ITD (f.c.=[…]) was added using a Multidrop Combi (ThermoFisher Scientific, Waltham, MA) and preincubated for 10 min. Reactions were started by adding fluorescein-poly GT (f.c.=200 nM) and ATP (f.c.=57 μM) substrates. Reactions proceeded for 40 minutes. The reactions were stopped with a detection mixture of EDTA (f.c.=20 mM) and terbium-conjugated anti-phoso tyrosine antibody pY20 (f.c.=2 nM). The plates were sealed and read on an Envision (PerkinElmer, Waltham, MA) using 340 nm excitation and emission reads at 495 and 520 nM.
# PRMT5-MEP50 = PRMT5-MEP50 (Homo sapiens, UniProt O14744); assay: PRMT5 assay (3H-SAM flashplate); details: Table 4; PRMT5 biochemical assay
# Sequence of PRMT5-MEP50 (O14744 whole entry): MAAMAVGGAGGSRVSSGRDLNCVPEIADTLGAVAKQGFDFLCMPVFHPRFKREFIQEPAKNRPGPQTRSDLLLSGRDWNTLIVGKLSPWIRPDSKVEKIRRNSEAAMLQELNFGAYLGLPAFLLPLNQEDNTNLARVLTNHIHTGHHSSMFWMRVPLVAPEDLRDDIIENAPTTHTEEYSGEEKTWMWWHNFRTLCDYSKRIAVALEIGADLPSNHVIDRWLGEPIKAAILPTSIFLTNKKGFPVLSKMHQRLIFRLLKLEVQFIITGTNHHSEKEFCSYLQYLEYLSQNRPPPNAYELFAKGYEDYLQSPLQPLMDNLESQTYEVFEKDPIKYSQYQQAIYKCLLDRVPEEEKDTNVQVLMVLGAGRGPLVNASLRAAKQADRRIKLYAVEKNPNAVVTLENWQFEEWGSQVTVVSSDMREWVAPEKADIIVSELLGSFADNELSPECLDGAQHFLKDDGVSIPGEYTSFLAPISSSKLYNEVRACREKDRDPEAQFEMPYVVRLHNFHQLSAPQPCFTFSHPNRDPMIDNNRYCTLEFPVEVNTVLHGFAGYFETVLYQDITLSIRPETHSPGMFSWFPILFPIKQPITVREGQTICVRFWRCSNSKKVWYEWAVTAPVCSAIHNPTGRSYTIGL
# Sequence of PRMT5-MEP50 (Q9BQA1 whole entry partner): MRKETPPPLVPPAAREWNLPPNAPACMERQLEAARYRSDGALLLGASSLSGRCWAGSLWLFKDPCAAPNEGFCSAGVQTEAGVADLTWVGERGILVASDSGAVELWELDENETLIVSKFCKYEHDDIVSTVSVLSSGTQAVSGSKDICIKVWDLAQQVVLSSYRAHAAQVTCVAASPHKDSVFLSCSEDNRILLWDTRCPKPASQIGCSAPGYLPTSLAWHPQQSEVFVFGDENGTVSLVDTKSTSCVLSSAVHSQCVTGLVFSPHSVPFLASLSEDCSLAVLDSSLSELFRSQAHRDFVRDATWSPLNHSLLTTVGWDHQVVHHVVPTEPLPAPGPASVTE
# Summary of the method: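 Radiometric methyl-transfer read-out: 3H-methyl transferred to a 3′-biotinylated, acetylated H4 peptide substrate (100 nM) from 3H-SAM (250 nM), captured on streptavidin scintillation plates. Enzyme complex 2.5 nM, pH 8.0 Tris buffer with DTT and Tween, compound preincubation 5 min, 60 min reaction stopped with excess unlabeled SAM.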
# FLT3-ITD = target: T2, FLT3-ITD (Homo sapiens, UniProt P36888); assay: FLT3-ITD LanthaScreen assay; assay type: biochemical; details: Table 4
# T2 sequence (P36888 1-993): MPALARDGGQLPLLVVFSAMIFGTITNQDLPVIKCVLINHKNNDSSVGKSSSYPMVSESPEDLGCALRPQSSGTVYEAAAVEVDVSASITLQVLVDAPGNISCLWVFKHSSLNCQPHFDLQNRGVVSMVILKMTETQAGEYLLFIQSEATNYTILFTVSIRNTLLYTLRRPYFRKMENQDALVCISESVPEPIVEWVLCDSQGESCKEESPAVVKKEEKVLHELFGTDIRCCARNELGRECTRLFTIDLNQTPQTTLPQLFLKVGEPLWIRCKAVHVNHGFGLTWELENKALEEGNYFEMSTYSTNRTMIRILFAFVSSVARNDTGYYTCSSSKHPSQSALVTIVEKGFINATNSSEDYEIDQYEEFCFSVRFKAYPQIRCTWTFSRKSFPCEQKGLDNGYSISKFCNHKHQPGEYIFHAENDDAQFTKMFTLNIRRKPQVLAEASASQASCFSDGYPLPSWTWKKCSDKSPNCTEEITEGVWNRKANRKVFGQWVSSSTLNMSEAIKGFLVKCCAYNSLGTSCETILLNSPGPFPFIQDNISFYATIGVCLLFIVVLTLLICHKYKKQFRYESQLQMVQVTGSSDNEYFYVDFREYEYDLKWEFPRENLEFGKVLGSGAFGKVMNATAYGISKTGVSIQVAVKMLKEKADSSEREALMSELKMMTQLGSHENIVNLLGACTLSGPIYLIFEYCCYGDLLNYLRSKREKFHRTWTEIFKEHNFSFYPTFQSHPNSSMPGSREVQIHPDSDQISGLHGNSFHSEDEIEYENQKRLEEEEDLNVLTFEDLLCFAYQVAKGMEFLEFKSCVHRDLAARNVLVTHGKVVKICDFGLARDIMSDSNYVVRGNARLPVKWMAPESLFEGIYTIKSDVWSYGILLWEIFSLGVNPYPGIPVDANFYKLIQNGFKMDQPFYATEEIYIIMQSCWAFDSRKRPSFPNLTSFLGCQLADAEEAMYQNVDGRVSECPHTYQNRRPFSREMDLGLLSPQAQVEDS
# Experimental: as §1, §2
# METTL3/METTL14 = METTL3/METTL14 (Homo sapiens, UniProt Q86U44); assay: METTL3-14 standard enzyme assay (3H-SAM flashplate); details: Table 4; METTL3 biochemical assay
# Sequence of METTL3/METTL14 (Q86U44 whole entry, species assumed): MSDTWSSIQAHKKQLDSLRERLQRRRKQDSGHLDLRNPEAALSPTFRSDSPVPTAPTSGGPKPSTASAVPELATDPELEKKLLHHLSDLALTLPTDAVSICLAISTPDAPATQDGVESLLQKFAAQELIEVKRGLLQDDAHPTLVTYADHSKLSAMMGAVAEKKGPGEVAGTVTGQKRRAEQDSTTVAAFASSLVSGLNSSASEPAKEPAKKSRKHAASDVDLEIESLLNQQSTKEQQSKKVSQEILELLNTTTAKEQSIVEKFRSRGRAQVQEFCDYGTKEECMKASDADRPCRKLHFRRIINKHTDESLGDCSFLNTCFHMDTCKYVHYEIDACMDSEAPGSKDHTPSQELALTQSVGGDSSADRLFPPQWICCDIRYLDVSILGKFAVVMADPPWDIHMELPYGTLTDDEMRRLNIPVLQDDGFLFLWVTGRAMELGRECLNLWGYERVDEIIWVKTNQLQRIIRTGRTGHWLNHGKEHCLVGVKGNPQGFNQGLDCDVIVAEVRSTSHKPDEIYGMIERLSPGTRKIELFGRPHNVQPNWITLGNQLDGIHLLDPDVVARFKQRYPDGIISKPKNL
# Sequence of METTL3/METTL14 (Q9HCE5 whole entry partner, species assumed): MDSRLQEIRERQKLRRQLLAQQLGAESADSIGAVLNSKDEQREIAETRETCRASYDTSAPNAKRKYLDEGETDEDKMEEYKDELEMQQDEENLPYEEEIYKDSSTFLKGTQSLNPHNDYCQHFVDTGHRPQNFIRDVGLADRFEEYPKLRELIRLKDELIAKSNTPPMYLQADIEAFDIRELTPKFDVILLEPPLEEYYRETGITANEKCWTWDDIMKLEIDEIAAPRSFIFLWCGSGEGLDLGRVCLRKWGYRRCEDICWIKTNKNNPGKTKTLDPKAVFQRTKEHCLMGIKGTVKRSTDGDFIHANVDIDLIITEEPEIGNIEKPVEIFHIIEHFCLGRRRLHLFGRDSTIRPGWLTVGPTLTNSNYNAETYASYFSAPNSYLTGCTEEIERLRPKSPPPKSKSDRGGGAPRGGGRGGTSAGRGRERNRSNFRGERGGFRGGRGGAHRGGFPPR
# Summary of the method: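 Radiometric methyltransferase read-out: after quenching with excess unlabelled SAM (15 μM), biotinylated RNA was captured on streptavidin flashplates (2 h, 25° C) and counted. Reactions contained 2.5 nM enzyme (5 min preincubation), 100 nM RNA and 100 nM 3H-SAM, ran 30 min in HEPES pH 7.5 buffer with KCl, MgCl2, DTT.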
Compound,IC50 (FLT3) [nM],IC50 (PRMT5-MEP50) [nM],IC50 (FLT3-ITD) [nM],IC50 (METTL3/METTL14) [nM]
"COCCn1ccc(-c2cn([C@@H]3O[C@H](C(=O)NC4CCN(C)CC4)[C@@H](O)[C@H]3O)c3ncnc(N)c23)n1 [Compound I-57, (2S,3S,4R,5R)-5-(4-amino-5-(1-(2-methoxyethyl)-1H-pyrazol-3-yl)-7H-pyrrolo[2,3-d]pyrimidin-7-yl)-3,4-dihydroxy-N-(1-methylpiperidin-4-yl)tetrahydrofuran-2-carboxamide]",≥ 1000,100 to 1000,≥ 1000,100 to 1000
CC(O)CN(C(=O)[C@H]1O[C@@H](n2cc(-c3ccn(C)n3)c3c(N)ncnc32)[C@H](O)[C@@H]1O)C1CCN(C)CC1 (some centres unmarked) [Compound I-147],≥ 1000,< 10,≥ 1000,≥ 1000
CN1CCC(N(CCC#N)C(=O)[C@H]2O[C@@H](n3cc(-c4ccn(C)n4)c4c(N)ncnc43)[C@H](O)[C@@H]2O)CC1 [Compound I-144],≥ 1000,10 to 100,≥ 1000,100 to 1000
Cn1ccc(-c2cn([C@@H]3O[C@H](C(=O)NC4CCc5nc[nH]c5C4)[C@@H](O)[C@H]3O)c3ncnc(N)c23)n1 (some centres unmarked) [Compound I-194],≥ 1000,100 to 1000,≥ 1000,10 to 100
Cn1ccc(-c2cn([C@@H]3O[C@H](C(=O)N4CCC[C@@H](NS(C)(=O)=O)C4)[C@@H](O)[C@H]3O)c3ncnc(N)c23)n1 [Compound I-151],≥ 1000,≥ 1000,≥ 1000,≥ 1000
CC1CC(NC(=O)[C@H]2O[C@@H](n3cc(-c4ccn(C)n4)c4c(N)ncnc43)[C@H](O)[C@@H]2O)CCN1C (stereo in doubt) [Compound I-231],≥ 1000,100 to 1000,≥ 1000,100 to 1000
Cn1ccc(-c2cn([C@@H]3O[C@H](C(=O)NC4CCNC(C)(C)C4)[C@@H](O)[C@H]3O)c3ncnc(N)c23)n1 (some centres unmarked) [Compound I-189],≥ 1000,10 to 100,≥ 1000,100 to 1000
CN1CCC(N(CCOCCO)C(=O)[C@H]2O[C@@H](n3cc(-c4ccn(C)n4)c4c(N)ncnc43)[C@H](O)[C@@H]2O)CC1 [Compound I-177],≥ 1000,10 to 100,≥ 1000,≥ 1000
CC1CC(NC(=O)[C@H]2O[C@@H](n3cc(-c4ccn(C)n4)c4c(N)ncnc43)[C@H](O)[C@@H]2O)CCN1 (stereo in doubt) [Compound I-211],≥ 1000,100 to 1000,≥ 1000,100 to 1000
Cn1ccc(-c2cn([C@@H]3O[C@H](C(=O)NC[C@H]4CC[C@H](O)CC4)[C@@H](O)[C@H]3O)c3ncnc(N)c23)n1 [Compound I-159],≥ 1000,≥ 1000,≥ 1000,≥ 1000
Cn1ccc(-c2cn([C@@H]3O[C@H](C(=O)NC4CCc5cnc(N)nc5C4)[C@@H](O)[C@H]3O)c3ncnc(N)c23)n1 (some centres unmarked) [Compound I-188],≥ 1000,100 to 1000,≥ 1000,100 to 1000
Cn1ccc(-c2cn([C@@H]3O[C@H](C(N)=O)[C@@H](O)[C@H]3O)c3ncnc(N)c23)n1 [Compound I-54],≥ 1000,100 to 1000,≥ 1000,≥ 1000
C[C@@H]1C[C@@H](NC(=O)[C@H]2O[C@@H](n3cc(-c4ccn(C)n4)c4c(N)ncnc43)[C@H](O)[C@@H]2O)CCN1C [Compound I-233],≥ 1000,100 to 1000,≥ 1000,100 to 1000

# Results, then the compound that gave them:
IC50 (FLT3) [nM],IC50 (PRMT5-MEP50) [nM],IC50 (FLT3-ITD) [nM],IC50 (METTL3/METTL14) [nM],Compound
≥ 1000,10 to 100,≥ 1000,100 to 1000,Cn1ccc(-c2cn([C@@H]3O[C@H](C(=O)NC4CCN(CCO)CC4)[C@@H](O)[C@H]3O)c3ncnc(N)c23)n1 [Compound I-178]
≥ 1000,100 to 1000,≥ 1000,≥ 1000,Cn1ccc(-c2cn([C@@H]3O[C@H](C(=O)N4CCCC(NS(C)(=O)=O)C4)[C@@H](O)[C@H]3O)c3ncnc(N)c23)n1 (stereo in doubt) [Compound I-185]
≥ 1000,100 to 1000,≥ 1000,100 to 1000,"CN1CCC(NC(=O)[C@H]2O[C@@H](n3cc(C4CCCC4)c4c(N)ncnc43)[C@H](O)[C@@H]2O)CC1 [Compound I-56, (2S,3S,4R,5R)-5-(4-amino-5-cyclopentyl-7H-pyrrolo[2,3-d]pyrimidin-7-yl)-3,4-dihydroxy-N-(1-methylpiperidin-4-yl)tetrahydrofuran-2-carboxamide]"
≥ 1000,100 to 1000,≥ 1000,100 to 1000,"CN1CCC(NC(=O)[C@H]2O[C@@H](n3cc(C4CCCO4)c4c(N)ncnc43)[C@H](O)[C@@H]2O)CC1 (stereo partly drawn) [Compound I-53, (2S,3S,4R,5R)-5-[4-amino-5-(oxolan-2-yl)-7H-pyrrolo[2,3-d]pyrimidin-7-yl]-3,4-dihydroxy-N-(1-methylpiperidin-4-yl)oxolane-2-carboxamide]"
≥ 1000,100 to 1000,≥ 1000,100 to 1000,C[C@H]1C[C@H](NC(=O)[C@H]2O[C@@H](n3cc(-c4ccn(C)n4)c4c(N)ncnc43)[C@H](O)[C@@H]2O)CCN1C [Compound I-234]
≥ 1000,10 to 100,≥ 1000,< 10,CNc1ccc2ccc(NC(=O)[C@H]3O[C@@H](n4cc(-c5ccn(C)n5)c5c(N)ncnc54)C[C@@H]3O)cc2n1 [Compound I-35]
≥ 1000,10 to 100,≥ 1000,100 to 1000,CN1CC[C@H](NC(=O)[C@H]2O[C@@H](n3cc(-c4ccn(C)n4)c4c(N)ncnc43)[C@H](O)[C@@H]2O)C1 [Compound I-203]
